In US5021551A, “Method of enhancing peptide immunogenicity” (Washington University, priority 1989, dated 1991):
Entries after “also recorded” stand apart in the source; their conditions may differ. Peptide text beside a SMILES is read from it.

Experiments:
Format in all cases: cell-based
[1] = test system: A6.A2 T cell hybridoma (HEL (34-45) specific); test: T cell stimulation assay, A6.A2 hybridoma, fixed TA3 antigen-presenting cells; conditions: FIG. 2
Procedure: (§1) FIG. 2a and 2b are graphical representation which show the stimulation of two T cell hybridomas, A6.A2 ([…]) and 18N.30 ([…]), that react with a modified T cell immunogenic peptide 34-45NH.sbsb.2 ( ) in another embodiment of the invention compared to normal peptide HEL (34-45) ( ). The assay was performed as described hereinafter in Materials and Methods of the Examples except fixed TA3 cells were used as the source of antigen-presenting cell.
(§2) The level of T cell stimulation was determined as previously described in detail by Allen and Unanue, J. Immunol. 132, 1077 (1984). In general, the level of T cell stimulation was determined by quantitating the amount of IL-2 produced by the T cell hybridomas. IL-2 was bioassayed by determining the level of ^3 H-Thymidine incorporation of the IL-2 dependent cell line, CTLL, 24 hours after culture in the test culture media. The source of antigen presenting cells were either peptone elicited peritoneal macrophages from CBA/J mice previously infected with Listeria monocytogenes or the B cell hybridoma, TA3 [Allen and Unanue, Id.; Allen et al, Proc. Natl. Acad. Sci. USA 81, 2489 (1984)]. […]
(§3) It was also determined whether the changes that enhanced the immunogenicity of HEL (52-61) could be extrapolated to another peptide of HEL which had been previously studied, namely the peptide comprising residues 34-45 [Allen et al, Immun. […]

[2] = test system: 18N.30 T cell hybridoma (HEL (34-45) specific); test: T cell stimulation assay, 18N.30 hybridoma, fixed TA3 antigen-presenting cells; conditions: FIG. 2
Procedure: as §1, §2, §3

[3] = test system: 2A11 T cell hybridoma (HEL(52-61) specific); test: T cell stimulation assay (IL-2 release, CTLL bioassay), 2A11 hybridoma; conditions: relative shift in antigen concentration required for 50% maximal response; 52-61 = 1
Procedure: (§4) The level of T cell stimulation was determined as previously described in detail by Allen and Unanue, J. Immunol. 132, 1077 (1984). In general, the level of T cell stimulation was determined by quantitating the amount of IL-2 produced by the T cell hybridomas. IL-2 was bioassayed by determining the level of ^3 H-Thymidine incorporation of the IL-2 dependent cell line, CTLL, 24 hours after culture in the test culture media. The source of antigen presenting cells were either peptone elicited peritoneal macrophages from CBA/J mice previously infected with Listeria monocytogenes or the B cell hybridoma, TA3 [Allen and Unanue, Id.; Allen et al, Proc. Natl. Acad. Sci. USA 81, 2489 (1984)]. Both sources of antigen presenting cells were fixed with paraformaldehyde prior to exposure to antigen.
(§5) The relative stimulatory capacity of derivatives of HEL (52-61) are shown. The relative stimulatory capacity of a peptide was determined by the relative shift in the concentration of antigen required for a 50% maximal response. For example, 300 fold less ^- 52-61^+. was required for a 50% maximal response than 52-61 with 3A9 T cells. The stimulation of 3A9 and 2All, two HEL (46-61) specific T cells, was determined as described in Materials and Methods. This test was performed three times, with identical results. A representative test is shown.

[4] = test system: 3A9 T cell hybridoma (HEL(52-61) specific); test: T cell stimulation assay (IL-2 release, CTLL bioassay), 3A9 hybridoma
Procedure: as §4, §5

| SMILES | increase in response of A6.A2 compared to unmodified HEL (34-45) [1] [fold] | increase in response of 18N.30 compared to unmodified HEL (34-45) [2] [fold] | Relative Stimulatory Capacity, T Cell 2A11 [3] | stimulatory ability, 3A9 T cell (in words) ([4]; qualitative comparison) | Relative Stimulatory Capacity, T Cell 3A9 ([4]; relative shift in antigen concentration required for 50% maximal response, 52-61 = 1) |
| --- | --- | --- | --- | --- | --- |
| C[C@H](NC(=O)[C@H](CCC(N)=O)NC(=O)[C@@H](NC(=O)[C@H](CC(N)=O)NC(=O)[C@H](Cc1ccccc1)NC(=O)[C@H](CC(N)=O)NC(=O)[C@H](CO)NC(=O)[C@H](CCC(=O)O)NC(=O)[C@@H](N)Cc1ccccc1)[C@@H](C)O)C(=O)N[C@H](C(=O)N[C@@H](CC(N)=O)C(=O)N[C@@H](CCCNC(=N)N)C(N)=O)[C@@H](C)O [HEL (34-45) with a C terminal amide] (H-FESNFNTQATNR-NH2) | 50 | 250 |  |  |  |
| CC[C@H](C)[C@H](NC(=O)CNC(=O)[C@H](Cc1ccc(O)cc1)NC(=O)[C@H](CC(=O)O)NC(=O)[C@@H](N)CCCCN)C(=O)N[C@@H](CC(C)C)C(=O)N[C@@H](CCC(N)=O)C(=O)N[C@H](C(=O)N[C@@H](CC(N)=O)C(=O)N[C@@H](CO)C(=O)N[C@@H](CCCNC(=N)N)C(=O)N[C@@H](CCC(=O)O)C(=O)O)[C@@H](C)CC [^+- 52-61^-+] (H-KDYGILQINSRE-OH) |  |  | 10 | drastically reduced; also recorded: less active than HEL (52-61) | 0.3 |
